# From the supplement of paper PMC10307832
# Legend:
# Experiment in all cases: relative viability (nuclei count vs DMSO), 5 days (fraction); higher = more cells survive
# 17-AAG + Pictilisib = compound: C=CCNC1=C2C[C@@H](C)C[C@H](OC)[C@H](O)[C@@H](C)/C=C(\C)[C@H](OC(N)=O)[C@@H](OC)/C=C\C=C(/C)C(=O)NC(=CC1=O)C2=O [17-AAG] + CS(=O)(=O)N1CCN(Cc2cc3nc(-c4cccc5[nH]ncc45)nc(N4CCOCC4)c3s2)CC1 [Pictilisib] (partner 1 µM)
# Summary of the method: (§1)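 Relative viability was taken as the ratio of nuclei in treated wells to nuclei in vehicle wells. Lung cancer cell lines in 1536-well plates received compounds by pin tool one day after seeding, either one drug alone or a fixed anchor-drug dose plus five library-drug doses (not always all listed) in √10 steps. Nuclei were counted on 4× images after 5 days of treatment, and values are medians of duplicate plates.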
# 17-AAG + Decitabine = compound: C=CCNC1=C2C[C@@H](C)C[C@H](OC)[C@H](O)[C@@H](C)/C=C(\C)[C@H](OC(N)=O)[C@@H](OC)/C=C\C=C(/C)C(=O)NC(=CC1=O)C2=O [17-AAG] + Nc1ncn([C@H]2C[C@H](O)[C@@H](CO)O2)c(=O)n1 [Decitabine] (partner 2 µM)
# Summary of the method: as §1
# 17-AAG + Crizotinib = compound: C=CCNC1=C2C[C@@H](C)C[C@H](OC)[C@H](O)[C@@H](C)/C=C(\C)[C@H](OC(N)=O)[C@@H](OC)/C=C\C=C(/C)C(=O)NC(=CC1=O)C2=O [17-AAG] + C[C@@H](Oc1cc(-c2cnn(C3CCNCC3)c2)cnc1N)c1c(Cl)ccc(F)c1Cl [Crizotinib] (partner 1 µM)
# Summary of the method: as §1
# 17-AAG + Alpelisib = compound: C=CCNC1=C2C[C@@H](C)C[C@H](OC)[C@H](O)[C@@H](C)/C=C(\C)[C@H](OC(N)=O)[C@@H](OC)/C=C\C=C(/C)C(=O)NC(=CC1=O)C2=O [17-AAG] + Cc1nc(NC(=O)N2CCC[C@H]2C(N)=O)sc1-c1ccnc(C(C)(C)C(F)(F)F)c1 [Alpelisib] (partner 2 µM)
# Summary of the method: as §1
# 17-AAG + Phenformin = compound: C=CCNC1=C2C[C@@H](C)C[C@H](OC)[C@H](O)[C@@H](C)/C=C(\C)[C@H](OC(N)=O)[C@@H](OC)/C=C\C=C(/C)C(=O)NC(=CC1=O)C2=O [17-AAG] + N=C(N)NC(=N)NCCc1ccccc1 [Phenformin] (partner 250 µM)
# Summary of the method: as §1
# 17-AAG + Lapatinib = compound: C=CCNC1=C2C[C@@H](C)C[C@H](OC)[C@H](O)[C@@H](C)/C=C(\C)[C@H](OC(N)=O)[C@@H](OC)/C=C\C=C(/C)C(=O)NC(=CC1=O)C2=O [17-AAG] + CS(=O)(=O)CCNCc1ccc(-c2ccc3ncnc(Nc4ccc(OCc5cccc(F)c5)c(Cl)c4)c3c2)o1 [Lapatinib] (partner 2 µM)
# Summary of the method: as §1
# 17-AAG + Olaparib = compound: C=CCNC1=C2C[C@@H](C)C[C@H](OC)[C@H](O)[C@@H](C)/C=C(\C)[C@H](OC(N)=O)[C@@H](OC)/C=C\C=C(/C)C(=O)NC(=CC1=O)C2=O [17-AAG] + O=C(c1cc(Cc2n[nH]c(=O)c3ccccc23)ccc1F)N1CCN(C(=O)C2CC2)CC1 [Olaparib] (partner 8 µM)
# Summary of the method: as §1
# 17-AAG + Navitoclax = compound: C=CCNC1=C2C[C@@H](C)C[C@H](OC)[C@H](O)[C@@H](C)/C=C(\C)[C@H](OC(N)=O)[C@@H](OC)/C=C\C=C(/C)C(=O)NC(=CC1=O)C2=O [17-AAG] + CC1(C)CCC(c2ccc(Cl)cc2)=C(CN2CCN(c3ccc(C(=O)NS(=O)(=O)c4ccc(N[C@H](CCN5CCOCC5)CSc5ccccc5)c(S(=O)(=O)C(F)(F)F)c4)cc3)CC2)C1 [Navitoclax] (partner 0.5 µM)
# Summary of the method: as §1
# 17-AAG + Foretinib = compound: C=CCNC1=C2C[C@@H](C)C[C@H](OC)[C@H](O)[C@@H](C)/C=C(\C)[C@H](OC(N)=O)[C@@H](OC)/C=C\C=C(/C)C(=O)NC(=CC1=O)C2=O [17-AAG] + COc1cc2c(Oc3ccc(NC(=O)C4(C(=O)Nc5ccc(F)cc5)CC4)cc3F)ccnc2cc1OCCCN1CCOCC1 [Foretinib] (partner 0.25 µM)
# Summary of the method: as §1
# 17-AAG + Linsitinib = compound: C=CCNC1=C2C[C@@H](C)C[C@H](OC)[C@H](O)[C@@H](C)/C=C(\C)[C@H](OC(N)=O)[C@@H](OC)/C=C\C=C(/C)C(=O)NC(=CC1=O)C2=O [17-AAG] + C[C@]1(O)C[C@@H](c2nc(-c3ccc4ccc(-c5ccccc5)nc4c3)c3c(N)nccn32)C1 [Linsitinib] (partner 1 µM)
# Summary of the method: as §1
# 17-AAG = compound: C=CCNC1=C2C[C@@H](C)C[C@H](OC)[C@H](O)[C@@H](C)/C=C(\C)[C@H](OC(N)=O)[C@@H](OC)/C=C\C=C(/C)C(=O)NC(=CC1=O)C2=O [17-AAG]
# Summary of the method: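 MetaXpress counted nuclei in 4× images of lung cancer cell lines that had been fixed, permeabilised and Hoechst-stained in one step. Before that, cells in 1536-well plates were kept overnight at 37 °C, pinned with five √10-spaced library-drug doses on vehicle-anchored plates, and cultured 5 days without medium change. Viability takes treated-well nuclei over vehicle-well nuclei and uses the median across plates. Plates were accepted only at control CV below 25% and at least one doubling.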
# 17-AAG + Bortezomib = compound: C=CCNC1=C2C[C@@H](C)C[C@H](OC)[C@H](O)[C@@H](C)/C=C(\C)[C@H](OC(N)=O)[C@@H](OC)/C=C\C=C(/C)C(=O)NC(=CC1=O)C2=O [17-AAG] + CC(C)C[C@H](NC(=O)[C@H](Cc1ccccc1)NC(=O)c1cnccn1)B(O)O [Bortezomib] (partner 0.002 µM)
# Summary of the method: as §1
cell line,measurement,setting,value
A549,relative viability,17-AAG + Pictilisib; first compound 0.00128 µM,0.543
same,relative viability,17-AAG + Pictilisib; first compound 0.004048 µM,0.114
same,relative viability,17-AAG + Pictilisib; first compound 0.0128 µM,0.0532
same,relative viability,17-AAG + Pictilisib; first compound 0.04048 µM,0.0751
same,relative viability,17-AAG + Pictilisib; first compound 0.128 µM,0.0642
same,relative viability,17-AAG + Decitabine; first compound 0.00128 µM,0.123
same,relative viability,17-AAG + Decitabine; first compound 0.004048 µM,0.271
same,relative viability,17-AAG + Decitabine; first compound 0.0128 µM,0.128
same,relative viability,17-AAG + Decitabine; first compound 0.04048 µM,0.0399
same,relative viability,17-AAG + Decitabine; first compound 0.128 µM,0.0274
same,relative viability,17-AAG + Crizotinib; first compound 0.00128 µM,0.666
same,relative viability,17-AAG + Crizotinib; first compound 0.004048 µM,0.372
same,relative viability,17-AAG + Crizotinib; first compound 0.0128 µM,0.0579
same,relative viability,17-AAG + Crizotinib; first compound 0.04048 µM,0.0609
same,relative viability,17-AAG + Crizotinib; first compound 0.128 µM,0.0363
same,relative viability,17-AAG + Alpelisib; first compound 0.00128 µM,0.777
same,relative viability,17-AAG + Alpelisib; first compound 0.004048 µM,0.189
same,relative viability,17-AAG + Alpelisib; first compound 0.0128 µM,0.0463
same,relative viability,17-AAG + Alpelisib; first compound 0.04048 µM,0.056
same,relative viability,17-AAG + Alpelisib; first compound 0.128 µM,0.0402
same,relative viability,17-AAG + Phenformin; first compound 0.00128 µM,0.154
same,relative viability,17-AAG + Phenformin; first compound 0.004048 µM,0.0295
same,relative viability,17-AAG + Phenformin; first compound 0.0128 µM,0.0354
same,relative viability,17-AAG + Phenformin; first compound 0.04048 µM,0.0477
same,relative viability,17-AAG + Phenformin; first compound 0.128 µM,0.03
same,relative viability,17-AAG + Lapatinib; first compound 0.00128 µM,0.99
same,relative viability,17-AAG + Lapatinib; first compound 0.004048 µM,0.548
same,relative viability,17-AAG + Lapatinib; first compound 0.0128 µM,0.129
same,relative viability,17-AAG + Lapatinib; first compound 0.04048 µM,0.0692
same,relative viability,17-AAG + Lapatinib; first compound 0.128 µM,0.0593
same,relative viability,17-AAG + Olaparib; first compound 0.00128 µM,0.336
same,relative viability,17-AAG + Olaparib; first compound 0.004048 µM,0.338
same,relative viability,17-AAG + Olaparib; first compound 0.0128 µM,0.0515
same,relative viability,17-AAG + Olaparib; first compound 0.04048 µM,0.0272
same,relative viability,17-AAG + Olaparib; first compound 0.128 µM,0.0363
same,relative viability,17-AAG + Navitoclax; first compound 0.00128 µM,1.13
same,relative viability,17-AAG + Navitoclax; first compound 0.004048 µM,0.542
same,relative viability,17-AAG + Navitoclax; first compound 0.0128 µM,0.0729
same,relative viability,17-AAG + Navitoclax; first compound 0.04048 µM,0.0453
same,relative viability,17-AAG + Navitoclax; first compound 0.128 µM,0.044
same,relative viability,17-AAG + Foretinib; first compound 0.00128 µM,0.963
same,relative viability,17-AAG + Foretinib; first compound 0.004048 µM,0.815
same,relative viability,17-AAG + Foretinib; first compound 0.0128 µM,0.55
same,relative viability,17-AAG + Foretinib; first compound 0.04048 µM,0.0245
same,relative viability,17-AAG + Foretinib; first compound 0.128 µM,0.0282
same,relative viability,17-AAG + Linsitinib; first compound 0.00128 µM,0.646
same,relative viability,17-AAG + Linsitinib; first compound 0.004048 µM,0.487
same,relative viability,17-AAG + Linsitinib; first compound 0.0128 µM,0.371
same,relative viability,17-AAG + Linsitinib; first compound 0.04048 µM,0.105
same,relative viability,17-AAG + Linsitinib; first compound 0.128 µM,0.0473
same,relative viability,17-AAG; 0.00128 µM,0.948
same,relative viability,17-AAG; 0.004048 µM,0.86
same,relative viability,17-AAG; 0.0128 µM,0.115
same,relative viability,17-AAG; 0.04048 µM,0.0515
same,relative viability,17-AAG; 0.128 µM,0.0401
EBC-1,relative viability,17-AAG + Pictilisib; first compound 0.00128 µM,0.477
same,relative viability,17-AAG + Pictilisib; first compound 0.004048 µM,0.157
same,relative viability,17-AAG + Pictilisib; first compound 0.0128 µM,0.13
same,relative viability,17-AAG + Pictilisib; first compound 0.04048 µM,0.185
same,relative viability,17-AAG + Pictilisib; first compound 0.128 µM,0.143
same,relative viability,17-AAG + Crizotinib; first compound 0.00128 µM,0.237
same,relative viability,17-AAG + Crizotinib; first compound 0.004048 µM,0.207
same,relative viability,17-AAG + Crizotinib; first compound 0.0128 µM,0.163
same,relative viability,17-AAG + Crizotinib; first compound 0.04048 µM,0.148
same,relative viability,17-AAG + Crizotinib; first compound 0.128 µM,0.135
same,relative viability,17-AAG + Alpelisib; first compound 0.00128 µM,0.828
same,relative viability,17-AAG + Alpelisib; first compound 0.004048 µM,0.197
same,relative viability,17-AAG + Alpelisib; first compound 0.0128 µM,0.186
same,relative viability,17-AAG + Alpelisib; first compound 0.04048 µM,0.159
same,relative viability,17-AAG + Alpelisib; first compound 0.128 µM,0.168
same,relative viability,17-AAG + Lapatinib; first compound 0.00128 µM,0.217
same,relative viability,17-AAG + Lapatinib; first compound 0.004048 µM,0.234
same,relative viability,17-AAG + Lapatinib; first compound 0.0128 µM,0.192
same,relative viability,17-AAG + Lapatinib; first compound 0.04048 µM,0.2
same,relative viability,17-AAG + Lapatinib; first compound 0.128 µM,0.2
same,relative viability,17-AAG + Bortezomib; first compound 0.00128 µM,0.536
same,relative viability,17-AAG + Bortezomib; first compound 0.004048 µM,0.252
same,relative viability,17-AAG + Bortezomib; first compound 0.0128 µM,0.185
same,relative viability,17-AAG + Bortezomib; first compound 0.04048 µM,0.203
same,relative viability,17-AAG + Bortezomib; first compound 0.128 µM,0.165
same,relative viability,17-AAG + Olaparib; first compound 0.00128 µM,0.676
same,relative viability,17-AAG + Olaparib; first compound 0.004048 µM,0.407
same,relative viability,17-AAG + Olaparib; first compound 0.0128 µM,0.13
same,relative viability,17-AAG + Olaparib; first compound 0.04048 µM,0.142
same,relative viability,17-AAG + Olaparib; first compound 0.128 µM,0.126
same,relative viability,17-AAG + Navitoclax; first compound 0.00128 µM,0.514
same,relative viability,17-AAG + Navitoclax; first compound 0.004048 µM,0.203
same,relative viability,17-AAG + Navitoclax; first compound 0.0128 µM,0.157
same,relative viability,17-AAG + Navitoclax; first compound 0.04048 µM,0.182
same,relative viability,17-AAG + Navitoclax; first compound 0.128 µM,0.126
same,relative viability,17-AAG + Foretinib; first compound 0.00128 µM,0.101
same,relative viability,17-AAG + Foretinib; first compound 0.004048 µM,0.13
same,relative viability,17-AAG + Foretinib; first compound 0.0128 µM,0.138
same,relative viability,17-AAG + Foretinib; first compound 0.04048 µM,0.104
same,relative viability,17-AAG + Foretinib; first compound 0.128 µM,0.0946
same,relative viability,17-AAG + Linsitinib; first compound 0.00128 µM,0.851
same,relative viability,17-AAG + Linsitinib; first compound 0.004048 µM,0.579
same,relative viability,17-AAG + Linsitinib; first compound 0.0128 µM,0.162
same,relative viability,17-AAG + Linsitinib; first compound 0.04048 µM,0.139
same,relative viability,17-AAG + Linsitinib; first compound 0.128 µM,0.12
same,relative viability,17-AAG; 0.00128 µM,1.02
same,relative viability,17-AAG; 0.004048 µM,0.882
same,relative viability,17-AAG; 0.0128 µM,0.166
same,relative viability,17-AAG; 0.04048 µM,0.15
same,relative viability,17-AAG; 0.128 µM,0.132
